Calls of active or inactive are those of the source. No rule for the calls is given here.

For one assay, the target named is Bcl-2-like protein 1 (Homo sapiens) (UniProt Q07817). Nature of the assay: Bim-Bcl-XL interaction inhibitors, potency, dose response, biochemical, multiplexed, bead flow cytometry, human Bcl-XL (AID 1322). As to inhibition: test concentration not given here. The following applies: Bead-based flow cytometry, Bim peptide-Bcl-XL binding, MCF. On the technique in general: A flow cytometer gives signals particle by particle.
Sequence of Bcl-2-like protein 1 (Homo sapiens) (Q07817 whole entry, looked up): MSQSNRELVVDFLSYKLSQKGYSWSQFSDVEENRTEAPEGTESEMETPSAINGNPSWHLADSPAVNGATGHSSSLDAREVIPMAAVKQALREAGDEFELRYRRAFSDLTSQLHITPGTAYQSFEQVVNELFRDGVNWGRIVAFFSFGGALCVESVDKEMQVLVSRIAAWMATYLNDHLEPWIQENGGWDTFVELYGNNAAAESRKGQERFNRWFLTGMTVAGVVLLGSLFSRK
For `CNC(CC(=O)c1ccc([N+](=O)[O-])cc1)C(Cl)(Cl)Cl` (stereo not drawn), the outcome was inactive. For `Clc1nssc1=Nc1ccc(Br)cc1`, the result was inactive. Regarding `O=C1N/C(=C/c2cccn2-c2ccccc2)C(=O)N1Cc1ccc(F)cc1`, the outcome was inactive. In the case of `COc1ccc(C)cc1Nc1ccc(C(=O)O)cc1[N+](=O)[O-]`, the result was inactive. `O=C(NNC(=O)C12CC3CC(CC(C3)C1)C2)c1ccco1`: the outcome was inactive. `O=C(O)c1ccccc1NSc1ccccc1[N+](=O)[O-]`: the outcome was inactive. On to `Cc1cc(N/C(=N/S(=O)(=O)c2cc(F)ccc2F)c2ccccc2)n(-c2ccccc2)n1`, for which the result was inactive.

For `OCCC1CN(Cc2ccc3ncccc3c2)CCN1Cc1ccccc1` (stereo not drawn), the outcome was inactive.

For the compound `CC(C)c1ccc(C2CC(c3ccc(Br)cc3)=NN2C(N)=S)cc1` (stereo not drawn), the outcome was inactive.

With `Cc1ccc(/C=C2/NC(=O)N(Cc3ccccc3)C2=O)o1`, the outcome was inactive. On the same count and under the same terms, the same measure for `COc1ccc(/C=C/C(=O)c2cc(Br)ccc(=O)c2O)cc1`: “inactive”; for `CCOC(=O)c1ccc(N=c2ssnc2Cl)cc1`: “inactive”; for `COc1ccc(OC)c(NC(=O)CCCN2C(=S)NC(C)(C)CC2C)c1` (stereo not drawn): “inactive”. Still for that read-out and setting: to `COc1c(C)cc(Br)cc1C(=O)Nc1ccc(S(N)(=O)=O)cc1` belongs “inactive”. On to `COC(=O)CSc1nccc(-c2cccs2)n1`, for which the result was inactive. For the compound `O=C(C1=NN[C@@H]2C(=O)N(c3ccccc3C(F)(F)F)C(=O)[C@H]12)c1ccc2ccccc2n1`, the result was inactive. Take `CN(C)c1cccc(NC(=O)C2(C)CC2(Cl)Cl)c1` (stereo not drawn): the outcome was inactive. As for `CCN(CC)CCN(C(=O)c1ccc(N2C(=O)CCC2=O)cc1)c1nc2cc3c(cc2s1)OCCO3`, the outcome was inactive.

Still in this assay, the particulars now being: Bead-based flow cytometry, Bim peptide-Bcl-XL binding, MCF.
`Cc1nc2cc(F)ccc2n1C1CCN(C(=O)c2c(F)cccc2F)CC1`: the inhibition result was “inactive”. `COc1ccccc1Oc1ccc2c(c1)C(=O)N(c1cccc3ncccc13)C2=O`: the inhibition entry was “inactive”. `N/C(=N\N=C/c1ccc(Br)cc1)N/N=C\c1ccc(Br)cc1`: the inhibition entry was “inactive”. In the case of `CN(C)c1ncc(C2=C(Cl)C(=O)C(N3CCCC3)=C(Cl)C2=O)s1`, the inhibition entry is “inactive”. Turning to `CCn1c(SCC(=O)Nc2ccccc2-c2ccccc2)nnc1-c1ccoc1C`, the inhibition result is “inactive”. Regarding `Cc1[nH]c2ccccc2c1C(=O)COC(=O)c1c(-c2c(F)cccc2Cl)noc1C`, the inhibition result is “inactive”. `O=C(COCC(=O)NCc1ccccc1)NCc1ccccc1`: the inhibition entry is “inactive”. As for `c1ccc(Nc2nc(-c3ccncc3)cs2)cc1`, the inhibition result was “inactive”. In the case of `Cc1ccc(S(=O)(=O)N(C)CC(=O)N2CCc3ccccc32)cc1`, the inhibition result is “inactive”. As to `COc1ccc(-n2c(NC(=O)c3ccco3)c(C#N)c3nc4ccccc4nc32)cc1`, the inhibition result is “inactive”. With `Cn1c(=O)c2c(nc(NCCO)n2CCc2ccccc2)n(C)c1=O`, the inhibition result was “inactive”.

On to `Cc1cc(C)nc(/N=C(\N)N2CCc3ccccc32)n1`, for which the inhibition entry was “inactive”. The same measure, in the same setting: the same measure for `Cc1cccc(NC(=S)N2CCn3cccc3C2c2cccnc2)c1` (stereo not drawn): “inactive”; for `Cc1ccc(C)n1-c1cccc(C(=O)O)c1`: “inactive”.

In the case of `S=C(NCCc1ccccc1)NCCc1ccccc1`, the inhibition entry is “inactive”. For `Cc1nc(=S)c2ccccc2[nH]1`, the inhibition result was “inactive”. On the same count and under the same terms, the same measure for `c1csc(C2=Nn3c(nnc3-c3ccncc3)SC2)c1`: “inactive”; for `O=C(COc1ccccc1)Nc1ccc2c(c1)Cc1cc(NC(=O)COc3ccccc3)ccc1-2`: “inactive”; for `CN1N=C(C(=O)N2CCCC(C(=O)c3cccc(C(F)(F)F)c3)C2)CCC1=O` (stereo not drawn): “inactive”.

Consider `CCN1C(=O)/C(=C\C=C2/C=CC=CN2CC)SC1=S`, for which the inhibition result is “inactive”. For `CCCCCCn1nc(C(=O)Nc2nc3c(s2)CCCC3)c2ccccc2c1=O`, the inhibition entry is “inactive”. On to `CCOC(=O)C1(CC/C(C)=N\NC(N)=O)CC(C)(C)OC1=O` (stereo not drawn), for which the inhibition result is “inactive”. Consider `O=C(C1=C(Nc2ccccc2)c2ccccc2S(=O)(=O)N1)c1ccccc1`, for which the inhibition entry is “inactive”. Regarding `O=C(COc1ccccc1Br)NCc1ccccn1`, the inhibition result is “inactive”.

On to `Cc1ccc(N=C2NC(=O)/C(=C/C=C/c3ccco3)S2)cc1`, for which the inhibition result was “inactive”. In the case of `CNc1nc2ccccc2n1/N=C/c1cccc(OC)c1OC`, the inhibition entry was “inactive”.

`CNc1ccccc(C(=O)/C=C/c2ccccc2OC)c1=O`: the inhibition entry is “inactive”. In the case of `CN1C2C=C3C(C#N)=C(N)C(C#N)(C#N)[C@@H](c4ccsc4)[C@@H]3C1CC2` (stereo partly drawn), the inhibition entry is “inactive”.

As for `Cc1ccc(CC(=O)OCCNC(=O)c2cccnc2)cc1`, the inhibition entry was “inactive”. Same read-out and setting: to `Cc1ccc(-c2n[nH]c(=S)n2-c2ccccc2)cc1` belongs “inactive”; to `COc1ccc(NC(=O)c2c(F)cccc2F)cc1S(=O)(=O)Nc1ccc(Br)cc1`, “inactive”; to `CC(=O)NC1=C(NC2CCS(=O)(=O)C2)C(=O)c2ccccc2C1=O` (stereo not drawn), “inactive”.

On to `COc1ccc(NC(=O)c2ccco2)cc1NC(=O)c1ccco1`, for which the inhibition result is “inactive”. The same measure, in the same setting: the same measure for `O=C(OCc1cnc(Cl)s1)c1cccc(Cl)c1Cl`: “inactive”; for `Cc1cc(C)cc(NS(=O)(=O)c2ccc3c(c2)c(=O)n(C)c(=O)n3C)c1`: “inactive”. As for `COc1ccc2cc(CN(CCc3ccccc3)Cc3nnnn3CC3CCCO3)c(=O)[nH]c2c1` (stereo not drawn), the inhibition result was “inactive”. Turning to `CCN1CCN(c2cc(C)c3cc(NC(=S)N4CCN(c5ccc(F)cc5)CC4)ccc3n2)CC1`, the inhibition entry is “inactive”.

Turning to `OC(COc1ccc2cc(Br)ccc2c1)CN1CCOCC1` (stereo not drawn), the inhibition result was “inactive”. Still for that read-out and setting: the same measure for `CN(C(=O)NC1CCCCC1)c1ccccc1`: “inactive”; for `O=C(c1cc2ccccc2oc1=O)N(c1ccccc1)C1C=CS(=O)(=O)C1` (stereo not drawn): “inactive”; for `CC1(C)CC(=O)C(C=NCCN2CCN(CCc3ccccc3)CC2)=C(O)C1`: “inactive”. Consider `C=CCn1c(C)cc(-c2csc(NC)n2)c1C`, for which the inhibition result was “inactive”. For the compound `Cc1onc(-c2ccccc2)c1C(=O)Nc1nnc(COc2ccc(Cl)cc2)s1`, the inhibition entry was “inactive”. Turning to `COc1ccccc1-n1c(-c2cc(-c3ccc(F)cc3)n[nH]2)n[nH]c1=S`, the inhibition result was “inactive”.

`COc1cc(NC(=S)NC(=O)c2cc(C)cc(C)c2)ccc1NC(=O)c1cccs1`: the inhibition entry was “inactive”. On to `CCN1CCN(CC(=O)c2c[nH]c3ccc(C)cc23)CC1`, for which the inhibition entry is “inactive”. For `COc1ccccc1Oc1ccc2c(c1)C(=O)N(c1ccccc1)C2=O`, the inhibition entry is “inactive”.

As to `Cc1ccc(/C=C2/NC(=O)N(Cc3ccc(Br)cc3)C2=O)o1`, the inhibition result is “inactive”. On the same count and under the same terms, the same measure for `COc1ccc(-n2cc(-c3ccc(OC)c(OC)c3)[nH]c2=S)cc1`: “inactive”; for `O=C(NCc1ccccn1)c1ccc2nc(-c3ccco3)c(-c3ccco3)nc2c1`: “inactive”. As to `CCCC(=O)OCCNc1cc(Sc2nccn2C)c2nonc2c1[N+](=O)[O-]`, the inhibition result was “inactive”. As to `CN(CC(=O)O/N=C(\N)c1ccc([N+](=O)[O-])cc1)S(=O)(=O)c1ccccc1`, the inhibition entry is “inactive”. On to `Nc1ccc(Nc2nc(-c3ccncc3)cs2)cc1`, for which the inhibition entry is “inactive”. On the same count and under the same terms, the same measure for `C/C(=N\NC(=O)Cc1cccn1C)c1ccc2ccccc2c1`: “inactive”; for `CCN1/C(=C/c2ccc3cc(C)cc(C)c3[n+]2CC)Sc2cc(C)ccc21`: “inactive”.

Consider `N=C1C(c2nc3ccccc3s2)=C(O)CN1Cc1ccccc1`, for which the inhibition result was “inactive”. As to `CC1(C)SC(=S)N(NC(=O)Nc2ccccc2)C1N(O)C(=O)Nc1cccc2ccccc12` (stereo not drawn), the inhibition entry was “inactive”. The same measure, in the same setting: the same measure for `Cc1nc(NC(=O)CC(C)C)sc1-c1csc(Nc2ccc(Cl)cc2)n1`: “inactive”. For `COc1ccc(OC)c(NC(=O)COC(=O)c2cc3c(s2)CCC3)c1`, the inhibition entry was “inactive”. Same read-out and setting: to `COc1ccc(C2(NC(C)=O)CCN(C(=O)c3ccco3)CC2)cc1` belongs “inactive”. For the compound `O=C(COc1ccccc1)N1CCN(c2ncnc3c2cnn3-c2ccccc2)CC1`, the inhibition entry was “inactive”. Same read-out and setting: to `COC(=O)C1C2c3ccccc3OC1(C)N=c1s/c(=C/c3cnn(C)c3C)c(=O)n12` (stereo not drawn) belongs “inactive”; to `CCOc1ccc(C(=O)Nc2nnn(CC)n2)cc1`, “inactive”. Consider `Cc1ccc(/C=C/C(=O)c2ccccc(=O)c2O)cc1C`, for which the inhibition entry is “inactive”. Regarding `COc1cc(/C=C2\SC(=S)NC2=O)ccc1OS(=O)(=O)c1ccccc1`, the inhibition entry is “inactive”. For the compound `Fc1ccc(C2=Nn3c(Cc4ccccc4F)nnc3SC2)cc1`, the inhibition entry was “inactive”. The same measure, in the same setting: the same measure for `COc1cccc2c1C(=O)C=C(C)C2=O`: “inactive”; for `O=C(CSc1nnc(-c2ccccc2)c(-c2ccccc2)n1)N1CCc2ccccc21`: “inactive”. In the case of `Cc1ccc(C)c(Oc2ncnc(N)c2[N+](=O)[O-])c1`, the inhibition entry is “inactive”. As to `CC(C)(C)OC(=O)N1CCN(C(=O)[C@H](Cc2ccc(O)cc2)n2cc(CCO)nn2)CC1`, the inhibition result was “inactive”. `CC1=CC(=O)c2ccccc2C1=O`: the inhibition entry was “inactive”. The same measure, in the same setting: to `CN=c1scc(C)n1/N=C/c1ccc(O)c(O)c1O` belongs “inactive”; to `COc1ccc(NC(=O)c2ccc3c(c2)NC(=O)CS3)cc1S(=O)(=O)Nc1ccc(Br)cc1`, “inactive”. For `N#C/C(=C(/O)CN1CCN(c2ccccc2F)CC1)c1nc(-c2ccccc2)cs1`, the inhibition entry was “inactive”. In the case of `COc1ccc(C2=Nc3cccc4cccc(c34)N2)cc1`, the inhibition entry was “inactive”.

For the origin of these results see PubChem BioAssay AID1322 (NMMLSC, 2008).
